Laboratory results as given in ChEMBL document CHEMBL4818999, “Pyrido[2, 3-d]pyrimidin-7(8H)-ones as new selective orally bioavailable Threonine Tyrosine Kinase (TTK) inhibitors” (Eur J Med Chem, 2021).

Columns and labels:
[1] = molecular target: NUAK family SNF1-like kinase 2 (Homo sapiens) (UniProt Q9H093); conditions: dose 100.0 nM
[2] = molecular target: Mitogen-activated protein kinase 8 (Homo sapiens) (UniProt P45983); conditions: dose 100.0 nM
Description: Inhibition of human full length JNK-1 using ATF2 as substrate at 100 nM direct filter-binding radiometric kinase activity assay relative to control

HCT-116 [3] = assay: Induction of apoptosis in human HCT-116 cells assessed as viable cells at 333.3 nM incubated for 48 hrs by annexin V and 7-AAD staining based flow cytometry analysis (reference value: 82.09 %); assay type: functional; conditions: read-out: Activity
HCT-116 [4] = assay: Induction of apoptosis in human HCT-116 cells assessed as viable cells at 1000 nM incubated for 48 hrs by annexin V and 7-AAD staining based flow cytometry analysis (reference value: 82.09 %); assay type: functional; conditions: read-out: Activity
[5] = molecular target: Death-associated protein kinase 1 (Homo sapiens) (UniProt P53355); conditions: dose 100.0 nM
[6] = molecular target: Serine/threonine-protein kinase ULK2 (Homo sapiens) (UniProt Q8IYT8); conditions: dose 100.0 nM
Description: Inhibition of human recombinant ULK2 (1 to 306) using casein at 100 nM direct filter-binding radiometric kinase activity assay relative to control

[7] = molecular target: T1, Death-associated protein kinase 3 (Homo sapiens, UniProt O43293); conditions: dose 100.0 nM
Target sequence in this assay (O43293 whole entry, looked up, the tested form may be a part): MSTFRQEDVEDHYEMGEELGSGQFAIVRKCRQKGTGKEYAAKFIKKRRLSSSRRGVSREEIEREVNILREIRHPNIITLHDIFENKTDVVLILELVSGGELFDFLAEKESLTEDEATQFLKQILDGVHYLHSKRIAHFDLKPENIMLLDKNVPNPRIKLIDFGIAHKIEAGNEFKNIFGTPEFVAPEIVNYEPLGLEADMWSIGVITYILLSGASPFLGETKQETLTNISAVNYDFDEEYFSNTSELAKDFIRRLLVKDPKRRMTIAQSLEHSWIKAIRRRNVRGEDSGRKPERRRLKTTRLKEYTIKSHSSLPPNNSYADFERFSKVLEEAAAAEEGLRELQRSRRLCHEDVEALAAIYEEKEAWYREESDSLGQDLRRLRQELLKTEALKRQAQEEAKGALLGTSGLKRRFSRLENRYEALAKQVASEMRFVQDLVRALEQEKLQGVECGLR
Description: Inhibition of human DAPK3 at 100 nM by direct-filter Binding radiometric assay relative to control

[8] = molecular target: Interleukin-1 receptor-associated kinase 1 (Homo sapiens, UniProt P51617); assay: Binding affinity to wild-type human partial length IRAK1 (R194 to S712 residues) expressed in mammalian expression system by active site-directed competition binding based Kinomescan method
[9] = Toxicity in CB17-SCID mouse xenografted with human HCT-116 cells xenografted assessed as liver damage at 50 mg/kg, po administered once daily relative to control; assay type: organism-based; conditions: in vivo
HCT-116 [10] = assay: Induction of apoptosis in human HCT-116 cells assessed as […] cells at 1000 nM incubated for 48 hrs by annexin V and 7-AAD staining based flow cytometry analysis (reference value: 1.20 %); assay type: functional
[11] = Half life in Sprague-Dawley rat at 25 mg/kg, po; assay type: ADME, organism-based; conditions: in vivo
[12] = molecular target: T2, MAP/microtubule affinity-regulating kinase 3 (Homo sapiens, UniProt P27448); conditions: dose 100.0 nM
[13] = molecular target: STE20/SPS1-related proline-alanine-rich protein kinase (Homo sapiens) (UniProt Q9UEW8); conditions: dose 100.0 nM
Description: Inhibition of human STK39 at 100 nM by direct-filter Binding radiometric assay relative t

[14] = AUC (0 to infinity) in Sprague-Dawley rat at 5 mg/kg, iv; assay type: ADME, organism-based; parameters: route intravenous, time infinity, dose 5 mg/kg; conditions: in vivo
[15] = molecular target: Death-associated protein kinase 2 (Homo sapiens) (UniProt Q9UIK4); conditions: dose 100.0 nM
Description: Inhibition of human recombinant full length DAPK2 using Calmodulin as substrate at 100 nM direct filter-binding radiometric kinase activity assay relative to control

[16] = molecular target: T1, Death-associated protein kinase 3; assay: Binding affinity to wild-type human partial length DAPK3 (M1 to A277 residues) expressed in bacterial expression system by measuring active site-directed competition binding based Kinomescan method
Target sequence in this assay (O43293 whole entry, the tested form may be a part): as the sequence (O43293 whole entry, looked up, the tested form may be a part) above

HCT-116 [17] = assay: Induction of apoptosis in human HCT-116 cells assessed as early apoptotic cells at 1000 nM incubated for 48 hrs by annexin V and 7-AAD staining based flow cytometry analysis (reference value: 8.12 %); assay type: functional
[18] = molecular target: Serine/threonine-protein kinase ULK1 (Homo sapiens) (UniProt O75385); conditions: dose 100.0 nM
Description: Inhibition of human recombinat ULK1 (1 to 314) using casein as substrate at 100 nM direct filter-binding radiometric kinase activity assay relative to control

[19] = molecular target: Serine/threonine-protein kinase 16 (Homo sapiens) (UniProt O75716); conditions: dose 100.0 nM
Description: Inhibition of human STK16 at 100 nM by direct-filter Binding radiometric assay relative to control

[20] = molecular target: Phosphatidylinositol 4,5-bisphosphate 3-kinase catalytic subunit delta isoform (Homo sapiens) (UniProt O00329); conditions: dose 100.0 nM
Description: Inhibition of human PIK3CD at 100 nM by scintillation counting based direct-filter Binding radiometric assay relative to control

[21] = molecular target: Phosphatidylinositol 3-kinase C2 domain-containing subunit gamma (Homo sapiens, UniProt O75747); assay: Binding affinity to human partial length PIK3C2G (M1 to I1446 residues) expressed in mammalian expression system by active site-directed competition binding based Kinomescan method
COLO 205 = assay: Antiproliferative activity against human COLO-205 cells assessed as growth inhibition after 96 hrs by CCK8 assay; assay type: functional, cell-based; conditions: COLO 205, 96 h
HCT-116 [22] = assay: Induction of apoptosis in human HCT-116 cells assessed as early apoptotic cells at 111.1 nM incubated for 48 hrs by annexin V and 7-AAD staining based flow cytometry analysis (reference value: 8.12 %); assay type: functional
[23] = molecular target: Mitogen-activated protein kinase 10 (Homo sapiens) (UniProt P53779); conditions: dose 100.0 nM
Description: Inhibition of human full length JNK3 at 100 nM by direct-filter Binding radiometric assay relative to control

[24] = Toxicity in CB17-SCID mouse xenografted with human HCT-116 cells xenografted assessed as body weight loss at 50 mg/kg, po administered once daily relative to control; assay type: organism-based; conditions: in vivo
HCT-116 [25] = assay: Induction of apoptosis in human HCT-116 cells assessed as necrotic cells at 111.1 nM incubated for 48 hrs by annexin V and 7-AAD staining based flow cytometry analysis (reference value: 1.20 %); assay type: functional
[26] = molecular target: Phosphatidylinositol 4,5-bisphosphate 3-kinase catalytic subunit delta isoform (Homo sapiens, UniProt O00329); assay: Binding affinity to wild-type human partial length PIK3CD (R108 to Q1044 residues) expressed in HEK293 cells by active site-directed competition binding based Kinomescan method; assay type: cell-based
HCT-116 [27] = assay: Induction of apoptosis in human HCT-116 cells assessed as late apoptotic cells at 333.3 nM incubated for 48 hrs by annexin V and 7-AAD staining based flow cytometry analysis (reference value: 8.59 %); assay type: functional
[28] = Half life in Sprague-Dawley rat at 5 mg/kg, iv; assay type: ADME, organism-based; conditions: in vivo
HCT-116 [29] = assay: Antitumor activity at human HCT-116 cells xenografted in CB17-SCID mouse assessed as tumor growth inhibition at 50 mg/kg, po administered once daily for 16 days in combination with paclitaxel at 20 mg/kg, ip once weekly relative to control; assay type: functional; conditions: HCT-116, 384 h, time 16 day, read-out: TGI
A549 = assay: Antiproliferative activity against human A549 cells assessed as growth inhibition after 96 hrs by CCK8 assay; assay type: functional, cell-based; conditions: A549, 96 h
[30] = molecular target: Phosphorylase b kinase gamma catalytic chain, liver/testis isoform (Homo sapiens) (UniProt P15735); conditions: dose 100.0 nM
Description: Inhibition of human recombinant PHKG2 using ZIPtide at 100 nM direct filter-binding radiometric kinase activity assay relative to control

[31] = molecular target: Phosphatidylinositol 3-kinase C2 domain-containing subunit gamma (Homo sapiens) (UniProt O75747); conditions: dose 100.0 nM
Description: Inhibition of PIK3C2G (unknown origin) at 100 nM direct filter-binding radiometric kinase activity assay relative to control

Homo sapiens = species on record: Homo sapiens; conditions: dose 100.0 nM
Description: Inhibition of PIPK5 (unknown origin) at 100 nM direct filter-binding radiometric kinase activity assay relative to control

HCT-116 [32] = assay: Induction of apoptosis in human HCT-116 cells assessed as viable cells at 111.1 nM incubated for 48 hrs by annexin V and 7-AAD staining based flow cytometry analysis (reference value: 82.09 %); assay type: functional; conditions: read-out: Activity
[33] = molecular target: T2, MAP/microtubule affinity-regulating kinase 3; assay: Binding affinity to wild-type human full length MARK3 (M1 to L729 residues) expressed in bacterial expression system by measuring active site-directed competition binding based Kinomescan method

Sequence of Mitogen-activated protein kinase 10 (Homo sapiens) (P53779 whole entry): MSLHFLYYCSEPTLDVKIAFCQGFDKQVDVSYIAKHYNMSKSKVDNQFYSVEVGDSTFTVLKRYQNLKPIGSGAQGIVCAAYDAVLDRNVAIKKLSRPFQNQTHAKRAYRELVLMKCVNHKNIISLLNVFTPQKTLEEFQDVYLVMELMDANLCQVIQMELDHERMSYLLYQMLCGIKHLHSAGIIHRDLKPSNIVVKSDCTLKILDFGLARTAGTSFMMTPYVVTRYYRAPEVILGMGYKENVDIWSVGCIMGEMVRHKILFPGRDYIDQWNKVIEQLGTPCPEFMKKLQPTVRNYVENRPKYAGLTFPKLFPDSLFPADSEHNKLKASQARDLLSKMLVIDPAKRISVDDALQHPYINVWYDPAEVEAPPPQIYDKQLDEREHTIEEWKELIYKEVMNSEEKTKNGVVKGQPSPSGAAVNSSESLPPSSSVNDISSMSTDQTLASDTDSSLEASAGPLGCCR
Sequence of Serine/threonine-protein kinase 16 (Homo sapiens) (O75716 whole entry, canonical isoform): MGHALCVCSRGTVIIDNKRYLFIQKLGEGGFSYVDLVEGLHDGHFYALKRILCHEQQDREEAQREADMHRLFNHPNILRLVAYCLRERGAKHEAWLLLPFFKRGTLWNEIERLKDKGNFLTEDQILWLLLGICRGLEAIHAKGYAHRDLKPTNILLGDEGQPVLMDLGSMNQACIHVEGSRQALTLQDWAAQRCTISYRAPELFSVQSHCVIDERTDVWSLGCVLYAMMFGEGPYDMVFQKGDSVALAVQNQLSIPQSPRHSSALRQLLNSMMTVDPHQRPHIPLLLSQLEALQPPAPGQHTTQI
Sequence of Phosphatidylinositol 3-kinase C2 domain-containing subunit gamma (Homo sapiens) (O75747 whole entry, the tested form may be a part): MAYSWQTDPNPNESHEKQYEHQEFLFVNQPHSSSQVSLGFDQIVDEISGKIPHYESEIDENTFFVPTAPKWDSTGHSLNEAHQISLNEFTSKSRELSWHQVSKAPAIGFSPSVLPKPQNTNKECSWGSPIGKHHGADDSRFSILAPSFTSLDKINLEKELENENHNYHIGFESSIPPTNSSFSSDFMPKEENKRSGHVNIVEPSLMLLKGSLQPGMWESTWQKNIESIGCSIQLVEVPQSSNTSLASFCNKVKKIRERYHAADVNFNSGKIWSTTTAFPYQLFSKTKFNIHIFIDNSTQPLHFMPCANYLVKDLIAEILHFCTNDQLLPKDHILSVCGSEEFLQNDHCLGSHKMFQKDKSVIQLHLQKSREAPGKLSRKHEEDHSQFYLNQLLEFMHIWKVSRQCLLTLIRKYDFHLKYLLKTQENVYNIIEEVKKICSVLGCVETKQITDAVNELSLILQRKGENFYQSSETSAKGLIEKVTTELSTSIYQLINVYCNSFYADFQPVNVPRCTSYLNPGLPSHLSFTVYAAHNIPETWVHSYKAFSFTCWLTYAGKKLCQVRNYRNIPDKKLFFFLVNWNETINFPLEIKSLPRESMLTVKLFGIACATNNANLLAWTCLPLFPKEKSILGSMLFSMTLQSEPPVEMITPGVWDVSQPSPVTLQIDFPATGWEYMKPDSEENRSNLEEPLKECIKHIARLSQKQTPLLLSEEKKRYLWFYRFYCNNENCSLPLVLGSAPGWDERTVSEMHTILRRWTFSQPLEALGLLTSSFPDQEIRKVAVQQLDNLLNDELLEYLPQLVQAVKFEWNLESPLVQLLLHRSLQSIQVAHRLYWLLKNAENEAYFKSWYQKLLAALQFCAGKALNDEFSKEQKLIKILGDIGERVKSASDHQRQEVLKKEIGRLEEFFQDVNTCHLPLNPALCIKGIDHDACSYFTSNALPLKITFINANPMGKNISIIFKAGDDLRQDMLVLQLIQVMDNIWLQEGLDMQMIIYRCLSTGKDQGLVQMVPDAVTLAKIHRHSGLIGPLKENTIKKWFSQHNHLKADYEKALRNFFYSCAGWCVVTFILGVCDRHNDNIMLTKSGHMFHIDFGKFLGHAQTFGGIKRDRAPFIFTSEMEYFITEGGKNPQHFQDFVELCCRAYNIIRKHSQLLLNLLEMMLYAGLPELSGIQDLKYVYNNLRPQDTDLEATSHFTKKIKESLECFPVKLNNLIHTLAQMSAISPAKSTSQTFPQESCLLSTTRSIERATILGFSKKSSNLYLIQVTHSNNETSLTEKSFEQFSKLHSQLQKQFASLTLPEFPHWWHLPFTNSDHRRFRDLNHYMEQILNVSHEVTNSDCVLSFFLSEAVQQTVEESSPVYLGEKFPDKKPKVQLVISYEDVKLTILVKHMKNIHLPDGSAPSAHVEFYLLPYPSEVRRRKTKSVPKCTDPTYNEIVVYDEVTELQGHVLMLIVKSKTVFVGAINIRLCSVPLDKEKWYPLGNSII
Sequence of Phosphatidylinositol 3-kinase C2 domain-containing subunit gamma (O75747 whole entry, the tested form may be a part): as above
Sequence of Serine/threonine-protein kinase ULK2 (Homo sapiens) (Q8IYT8 whole entry): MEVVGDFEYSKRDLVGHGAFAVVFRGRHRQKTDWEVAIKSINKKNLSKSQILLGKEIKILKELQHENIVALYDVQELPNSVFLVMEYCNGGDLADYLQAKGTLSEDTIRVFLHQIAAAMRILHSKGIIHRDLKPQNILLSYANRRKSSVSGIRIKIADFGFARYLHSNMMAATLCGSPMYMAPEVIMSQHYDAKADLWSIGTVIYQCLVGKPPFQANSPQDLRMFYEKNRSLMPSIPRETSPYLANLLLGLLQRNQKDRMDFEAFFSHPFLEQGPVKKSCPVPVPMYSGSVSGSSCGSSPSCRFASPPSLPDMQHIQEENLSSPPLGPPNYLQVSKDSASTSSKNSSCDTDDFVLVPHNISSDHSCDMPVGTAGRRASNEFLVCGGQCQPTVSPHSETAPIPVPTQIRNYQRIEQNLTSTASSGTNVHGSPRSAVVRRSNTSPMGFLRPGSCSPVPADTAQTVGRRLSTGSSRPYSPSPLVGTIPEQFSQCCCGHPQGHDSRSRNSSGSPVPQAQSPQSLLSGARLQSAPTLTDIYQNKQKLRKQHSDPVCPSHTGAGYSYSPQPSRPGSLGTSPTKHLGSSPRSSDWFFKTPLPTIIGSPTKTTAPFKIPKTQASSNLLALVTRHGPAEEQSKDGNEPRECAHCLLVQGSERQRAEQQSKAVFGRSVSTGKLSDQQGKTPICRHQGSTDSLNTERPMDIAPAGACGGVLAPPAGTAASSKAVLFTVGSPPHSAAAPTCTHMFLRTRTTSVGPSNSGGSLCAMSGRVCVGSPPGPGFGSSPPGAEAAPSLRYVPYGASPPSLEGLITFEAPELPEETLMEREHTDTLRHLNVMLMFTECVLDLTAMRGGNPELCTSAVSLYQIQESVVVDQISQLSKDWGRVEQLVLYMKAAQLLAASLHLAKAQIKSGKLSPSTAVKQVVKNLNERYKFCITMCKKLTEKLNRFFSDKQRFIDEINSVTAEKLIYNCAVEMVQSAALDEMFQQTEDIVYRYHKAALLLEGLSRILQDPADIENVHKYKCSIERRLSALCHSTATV
Sequence of Serine/threonine-protein kinase ULK1 (Homo sapiens) (O75385 whole entry): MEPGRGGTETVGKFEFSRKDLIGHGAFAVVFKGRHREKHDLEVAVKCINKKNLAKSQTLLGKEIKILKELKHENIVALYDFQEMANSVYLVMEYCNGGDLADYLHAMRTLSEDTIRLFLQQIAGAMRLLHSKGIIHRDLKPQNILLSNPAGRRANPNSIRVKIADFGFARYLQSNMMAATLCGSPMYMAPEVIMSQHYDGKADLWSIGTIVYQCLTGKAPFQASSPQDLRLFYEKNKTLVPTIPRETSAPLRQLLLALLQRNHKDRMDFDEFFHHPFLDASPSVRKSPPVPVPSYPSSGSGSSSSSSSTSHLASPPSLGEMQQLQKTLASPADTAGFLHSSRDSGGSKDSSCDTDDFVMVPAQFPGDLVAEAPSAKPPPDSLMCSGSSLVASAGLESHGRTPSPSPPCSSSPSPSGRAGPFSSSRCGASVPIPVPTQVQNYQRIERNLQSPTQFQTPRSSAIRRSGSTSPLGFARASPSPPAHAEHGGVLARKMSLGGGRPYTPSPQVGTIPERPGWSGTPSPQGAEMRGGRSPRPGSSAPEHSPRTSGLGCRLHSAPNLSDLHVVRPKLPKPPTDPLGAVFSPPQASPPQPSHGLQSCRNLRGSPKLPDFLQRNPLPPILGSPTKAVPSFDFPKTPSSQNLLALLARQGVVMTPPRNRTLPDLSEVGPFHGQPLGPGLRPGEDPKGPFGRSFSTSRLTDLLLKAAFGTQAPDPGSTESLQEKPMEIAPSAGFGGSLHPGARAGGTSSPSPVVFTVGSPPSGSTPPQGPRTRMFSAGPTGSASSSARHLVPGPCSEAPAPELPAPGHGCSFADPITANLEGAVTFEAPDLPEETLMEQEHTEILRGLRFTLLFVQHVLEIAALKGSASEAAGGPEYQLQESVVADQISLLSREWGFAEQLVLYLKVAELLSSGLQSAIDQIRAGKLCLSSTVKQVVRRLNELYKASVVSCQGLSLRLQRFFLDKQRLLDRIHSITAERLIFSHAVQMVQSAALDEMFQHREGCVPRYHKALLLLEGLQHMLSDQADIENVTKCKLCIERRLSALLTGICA

## COc1cc(N2CCN(C)CC2)ccc1Nc1ncc2c(C)cc(=O)n([C@H]3CC[C@@H](NC(=O)C4CCCCC4)CC3)c2n1
[1]
  inhibition: 84%
[2]
  inhibition: 75%
HCT-116 [3]
  viability at 0.3333 µM: 70.7%
HCT-116 [4]
  viability at 1 µM: 56.6%
[5]
  inhibition: 85%
[6]
  inhibition: 85%
[7]
  inhibition: 94.5%
[8]
  Kd: > 1000 nM
[9]
  Activity: Non-Toxic
HCT-116 [10]
  Activity: 3.44%
[11]
  half-life: 6.01 h
[12]
  inhibition: 92%
[13]
  inhibition: 75%
[14]
  AUC(0-inf): 5310 ng·h/mL
[15]
  inhibition: 65%
[16]
  Kd: 13 nM
HCT-116 [17]
  Activity: 18.81%
[18]
  inhibition: 68%
[19]
  inhibition: 87%
[20]
  inhibition: 100%
[21]
  Kd: > 1000 nM
COLO 205
  IC50: 280 nM
HCT-116 [22]
  Activity: 4.46%
[23]
  inhibition: 87%
[24]
  Activity: < 15%
HCT-116 [25]
  Activity: 0.75%
[26]
  Kd: > 1000 nM
HCT-116 [27]
  Activity: 13.81%
[28]
  half-life: 3.58 h
HCT-116 [29]
  inhibition in vivo at 50 mg/kg: 78%
A549
  IC50: 4400 nM
[30]
  inhibition: 87%
[31]
  inhibition: 94.4%
Homo sapiens
  inhibition: 77%
HCT-116 [32]
  viability at 0.1111 µM: 89.5%
[33]
  Kd: 11 nM
